# Values of other authors, collected in patent US9199951B2, “Process for the manufacture of a 1,2-epoxide” (Hexion Inc., priority 2008, dated 2015).
# Conditions: grams per liter water at 20° C.; for Solubility in water: terminal olefins of Table 2
Compound,Solubility in water,solubility
C=CCCCCCC [1-octene],0.27 µg/mL,
C=CCOC(C)=O [Allyl acetate],~10000 µg/mL,about 10 g/L
C=CCO [Allyl alcohol],miscible,
C=CCCl [Allyl chloride],3600 µg/mL,3600 µg/mL
C=CCBr [allyl bromide],,4000 µg/mL
